Here are results for six molecules from US20230210999A1, “TARGETED PROTEASE DEGRADATION (TED) PLATFORM” (EUBULUS BIOTHERAPEUTICS INC., priority 2020, published 2023).

SMILES strings stand for the structures.

The first assay deals with MV4;11 cells. The assay can be described thus: Cell proliferation experiment (Alamar blue, 72 h), MV4;11. In kind it is cell-based, human. As to conditions: Homo sapiens, MV4-11, MV4;11 cells; read-out: Inhibitory activity IC50 on MV4;11. The procedure, abridged: (§1)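 Single-cell suspensions from log-phase cultures, passaged at least 2 generations, are seeded into 96-well plates and given compound in complete medium. Following 72 h, fluorescence with Alamar blue is recorded and fitted for IC50.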
Background: Alamar Blue is a resazurin reagent that responds to reducing activity.
The term IC50 denotes the concentration needed to halve the response being measured. On to `CNC(=O)c1ccccc1Nc1nc(Nc2ccc(N3CCN(C(=O)NCCCNCCOCC(=O)Nc4ccc5c(c4)CN(C4CCC(=O)NC4=O)C5=O)CC3)cc2)ncc1Cl` (stereo not drawn) [UB-181062], for which the concentration for half-maximal inhibition (IC50) is 10 to 100 nM.

For `NC(COCCOCCNC(=O)[C@]1(Cc2cccc(Nc3nccs3)n2)CC[C@@H](Oc2cccc(Cl)c2F)CC1)COCCC(=O)Nc1ccc2c(c1)CN(C1CCC(=O)NC1=O)C2=O` (stereo partly drawn) [UB-181064], the IC50 is more than 1000 nM.

For the molecule `CNC(=O)c1ccccc1Nc1nc(Nc2ccc(N3CCN(C(=O)NCCOCCOCC(N)COCCC(=O)Nc4ccc5c(c4)CN(C4CCC(=O)NC4=O)C5=O)CC3)cc2)ncc1Cl` (stereo not drawn) [UB-181065], the IC50 was in the range of 10 to 100 nM.

As for `CNC(=O)c1ccccc1Nc1nc(Nc2ccc(N3CCN(C(=O)NCCOCCNCCC(=O)Nc4cccc5c4CN(C4CCC(=O)NC4=O)C5=O)CC3)cc2)ncc1Cl` (stereo not drawn) [UB-181066], the IC50 was in the range of 10 to 100 nM.

Take `CNC(=O)c1ccccc1Nc1nc(Nc2ccc(N3CCN(C(=O)NCCOCCNCCC(=O)Nc4ccc5c(c4)CN(C4CCC(=O)NC4=O)C5=O)CC3)cc2)ncc1Cl` (stereo not drawn) [UB-181067]: the half-maximal inhibitory concentration (IC50) lay within 10 to 100 nM.

`CNC(=O)c1ccccc1Nc1nc(Nc2ccc(N3CCN(C(=O)NCCOCCNCC(=O)Nc4cccc5c4CN(C4CCC(=O)NC4=O)C5=O)CC3)cc2)ncc1Cl` (stereo not drawn) [UB-181068]: the IC50 was in the range of 10 to 100 nM.

The next assay concerns PC-3. In words: Cell proliferation experiment, PC-3. In kind it is cell-based, human. As to conditions: Homo sapiens, PC-3, PC-3 cells; read-out: Inhibitory activity IC50 on PC-3. The protocol:
(§2) Reagents: RPMI-1640 medium, McCoy's 5A medium, IMDM medium, MEM medium, L-15 medium, fetal bovine serum. Penicillin-Streptomycin double antibody, trypsin, etc., 2-mercaptoethanol, NEAA, pyruvate, etc.
(§3) The cells were cultured in conventional ways, and the cells should be passed at least 2 generations before plating. Cells at the logarithmic growth phase were collected, prepared into single cell suspensions and counted. The concentration of cells was adjusted to the desired concentration, and cells were inoculated into a 96-well cell culture plate at 100 μl per well. 100 μL of complete medium of the test compound were added to each well, set up 2 duplicate wells for each concentration, and diluted with a 5-fold gradient, and continued to culture for 72 h. All cells were subjected to IC50 test for corresponding samples. The experimental results are shown in Test Example 4.
(§4) The fluorescence intensity of each well was detected using the Alarm blue method, and IC50 was calculated.
(§5) IC50 was calculated according to the following formula:
(§6) Y=Max+(Min−Max)/[1+(X/IC50)×Slope]
(§7) wherein Min, Max and Slope represent the minimum, maximum and slope respectively.
For the molecule `CNC(=O)c1ccccc1Nc1nc(Nc2ccc(N3CCN(C(=O)NCCCNCCOCC(=O)Nc4ccc5c(c4)CN(C4CCC(=O)NC4=O)C5=O)CC3)cc2)ncc1Cl` (stereo not drawn) [UB-181062], the IC50 is more than 1000 nM.

Turning to `NC(COCCOCCNC(=O)[C@]1(Cc2cccc(Nc3nccs3)n2)CC[C@@H](Oc2cccc(Cl)c2F)CC1)COCCC(=O)Nc1ccc2c(c1)CN(C1CCC(=O)NC1=O)C2=O` (stereo partly drawn) [UB-181064], the IC50 is more than 1000 nM.

Regarding `CNC(=O)c1ccccc1Nc1nc(Nc2ccc(N3CCN(C(=O)NCCOCCOCC(N)COCCC(=O)Nc4ccc5c(c4)CN(C4CCC(=O)NC4=O)C5=O)CC3)cc2)ncc1Cl` (stereo not drawn) [UB-181065], the IC50 is more than 1000 nM.

Consider `CNC(=O)c1ccccc1Nc1nc(Nc2ccc(N3CCN(C(=O)NCCOCCNCCC(=O)Nc4cccc5c4CN(C4CCC(=O)NC4=O)C5=O)CC3)cc2)ncc1Cl` (stereo not drawn) [UB-181066], for which the IC50 is more than 1000 nM.

As for `CNC(=O)c1ccccc1Nc1nc(Nc2ccc(N3CCN(C(=O)NCCOCCNCCC(=O)Nc4ccc5c(c4)CN(C4CCC(=O)NC4=O)C5=O)CC3)cc2)ncc1Cl` (stereo not drawn) [UB-181067], the 50% inhibitory concentration (IC50) is more than 1000 nM.

On to `CNC(=O)c1ccccc1Nc1nc(Nc2ccc(N3CCN(C(=O)NCCOCCNCC(=O)Nc4cccc5c4CN(C4CCC(=O)NC4=O)C5=O)CC3)cc2)ncc1Cl` (stereo not drawn) [UB-181068], for which the half-maximal inhibitory concentration (IC50) was more than 1000 nM.

Another assay concerns NCIH82 cells. In words: Cell proliferation experiment, NCI-H82. In kind it is cell-based, human. The following applies: Homo sapiens, NCI-H82, NCI-H82 cells; read-out: Inhibitory activity IC50 on NCI-H82. Put shortly: as §1
With `CNC(=O)c1ccccc1Nc1nc(Nc2ccc(N3CCN(C(=O)NCCCNCCOCC(=O)Nc4ccc5c(c4)CN(C4CCC(=O)NC4=O)C5=O)CC3)cc2)ncc1Cl` (stereo not drawn) [UB-181062], the half-maximal inhibitory concentration (IC50) was 100 to 1000 nM.

Take `NC(COCCOCCNC(=O)[C@]1(Cc2cccc(Nc3nccs3)n2)CC[C@@H](Oc2cccc(Cl)c2F)CC1)COCCC(=O)Nc1ccc2c(c1)CN(C1CCC(=O)NC1=O)C2=O` (stereo partly drawn) [UB-181064]: the IC50 is more than 1000 nM.

For `CNC(=O)c1ccccc1Nc1nc(Nc2ccc(N3CCN(C(=O)NCCOCCOCC(N)COCCC(=O)Nc4ccc5c(c4)CN(C4CCC(=O)NC4=O)C5=O)CC3)cc2)ncc1Cl` (stereo not drawn) [UB-181065], the IC50 lay within 100 to 1000 nM.

Turning to `CNC(=O)c1ccccc1Nc1nc(Nc2ccc(N3CCN(C(=O)NCCOCCNCCC(=O)Nc4cccc5c4CN(C4CCC(=O)NC4=O)C5=O)CC3)cc2)ncc1Cl` (stereo not drawn) [UB-181066], the IC50 was more than 1000 nM.

As for `CNC(=O)c1ccccc1Nc1nc(Nc2ccc(N3CCN(C(=O)NCCOCCNCCC(=O)Nc4ccc5c(c4)CN(C4CCC(=O)NC4=O)C5=O)CC3)cc2)ncc1Cl` (stereo not drawn) [UB-181067], the IC50 lay in the range of 100 to 1000 nM.

Consider `CNC(=O)c1ccccc1Nc1nc(Nc2ccc(N3CCN(C(=O)NCCOCCNCC(=O)Nc4cccc5c4CN(C4CCC(=O)NC4=O)C5=O)CC3)cc2)ncc1Cl` (stereo not drawn) [UB-181068], for which the IC50 is more than 1000 nM.

The test system of the next assay is MDA-MB-231 cells. The assay can be described thus: Cell proliferation experiment, MDA-MB-231. Type of assay: cell-based, human. As to conditions: Homo sapiens, MDA-MB-231, MDA-MB-231 cells; read-out: Inhibitory activity IC50 on MDA-MB-231. The protocol:
as §2, §3, §4, §5, §6, §7
Regarding `CNC(=O)c1ccccc1Nc1nc(Nc2ccc(N3CCN(C(=O)NCCCNCCOCC(=O)Nc4ccc5c(c4)CN(C4CCC(=O)NC4=O)C5=O)CC3)cc2)ncc1Cl` (stereo not drawn) [UB-181062], the IC50 is more than 1000 nM.

Regarding `NC(COCCOCCNC(=O)[C@]1(Cc2cccc(Nc3nccs3)n2)CC[C@@H](Oc2cccc(Cl)c2F)CC1)COCCC(=O)Nc1ccc2c(c1)CN(C1CCC(=O)NC1=O)C2=O` (stereo partly drawn) [UB-181064], the half-inhibitory concentration (IC50) is more than 1000 nM.

Take `CNC(=O)c1ccccc1Nc1nc(Nc2ccc(N3CCN(C(=O)NCCOCCOCC(N)COCCC(=O)Nc4ccc5c(c4)CN(C4CCC(=O)NC4=O)C5=O)CC3)cc2)ncc1Cl` (stereo not drawn) [UB-181065]: the concentration for half-maximal inhibition (IC50) is more than 1000 nM.

For the molecule `CNC(=O)c1ccccc1Nc1nc(Nc2ccc(N3CCN(C(=O)NCCOCCNCCC(=O)Nc4cccc5c4CN(C4CCC(=O)NC4=O)C5=O)CC3)cc2)ncc1Cl` (stereo not drawn) [UB-181066], the IC50 is more than 1000 nM.

Consider `CNC(=O)c1ccccc1Nc1nc(Nc2ccc(N3CCN(C(=O)NCCOCCNCCC(=O)Nc4ccc5c(c4)CN(C4CCC(=O)NC4=O)C5=O)CC3)cc2)ncc1Cl` (stereo not drawn) [UB-181067], for which the IC50 was more than 1000 nM.

On to `CNC(=O)c1ccccc1Nc1nc(Nc2ccc(N3CCN(C(=O)NCCOCCNCC(=O)Nc4cccc5c4CN(C4CCC(=O)NC4=O)C5=O)CC3)cc2)ncc1Cl` (stereo not drawn) [UB-181068], for which the half-inhibitory concentration (IC50) is more than 1000 nM.
